# Like-named read-outs stand apart in the source and are kept apart here.
# Key:
# [1] = test system: leukemia cancer cell lines; assay type: cell-based; settings: six lines for the conjugates, four lines for Taxol; FIGS. 1, 10 and 19
# Method: (§1) Conjugates 1 and 2 were sent to the United States National Cancer Institute (NCI) for screening in the NCI's anticancer screening program. The conjugates were provided in ethanol (approximately 40 mg analog/2 ml ethanol). […] Instructions were provided to store at 4° C. and to open the vials only when ready for immediate experimental use. Instructions also were provided to use the ethanol solutions containing the conjugates directly or to dissolve the analogs further in DMSO (dimethylsulfoxide) at appropriate concentrations, with vortexing if necessary for adequate dispersal.
# (§2) The activities of conjugates 1 and 2 were tested against 57 cancer cell lines. […] To understand the data, reference is made to the guides provided by the NCI, excerpted as follows:
# (§3) The Calculated Measurement of Effect: Percentage Growth (PG)
# (§4) The measured effect of the compound on a cell line is currently calculated according to one or the other of the following two expressions:
# (§5) If (Mean ODtext−Mean ODtzero)≧0, then PG=100×(Mean ODtest−Mean ODtzero)/(Mean ODctrl−Mean Odtzero)
# (§6) If (Mean ODtest−Mean ODtzero)<0, then PG=100×(Mean ODtest−Mean Odtzero)/Mean Odtzero
# (§7) Where: • Mean ODtzero=The average of optical density measurements of SRB-derived color just before exposure of cells to the test compound. • Mean ODtest=The average of optical density measurements of SRB-derived color after 48 hours exposure of cells to the test compound. • Mean ODctrl=The average of optical density measurements of SRB-derived color after 48 hours with no exposure of cells to the test compound.
# (§8) Experimental data was collected against each cell line. . . . . Each concentration is expressed as the log10 (molar or μg/ml) . . . . The response parameters GI50, TGI, and LC50 are interpolated values representing the concentrations at which the PG is +50, 0, and −50, respectively. Sometimes these response parameters cannot be obtained by interpolation. If, for instance, all of the PGs in a given row exceed +50, then none of the three parameters can be obtained by interpolation. In such a case, the value given for each response parameter is the highest concentration tested. This practice is extended similarly to the other possible situations where a response parameter cannot be obtained by interpolation.
# (§9) The dose-response curve page of the data package is created by plotting the PGs against the log10 of the corresponding concentration for every cell line. The cell line curves are grouped by subpanel. Horizontal lines are provided at the PG values of +50, 0, and −50. The concentrations corresponding to points where the curves cross these lines are the GI50, TGI and LC50, respectively.
# [2] = test system: non-small cell lung cancer lines H522 and H460; assay type: cell-based
# Method: as §1, §2, §3, §4, §5, §6, §7, §8, §9
# [3] = in vivo; cited from earlier work
# [4] = test system: CNSSF 268; experiment: cells; assay type: cell-based
# Method: as §1, §2, §3, §4, §5, §6, §7, §8, §9
# [5] = test system: CNS SF-539; experiment: cells; assay type: cell-based; settings: for TGI: concentration at which PG is 0, CNS SF-539
# Method: as §1, §2, §3, §4, §5, §6, §7, §8, §9
# [6] = test system: 57 cancer cell lines; assay type: cell-based; settings: for potency relative to Taxol: many cell lines tested; for pattern of activity versus Taxol (NCI statistical analysis): statistical analysis designed by the NCI
# Method: Conjugates 1 and 2 were sent to the United States National Cancer Institute (NCI) for screening in the NCI's anticancer screening program. The conjugates were provided in ethanol (approximately 40 mg analog/2 ml ethanol). The conjugates were sealed in vials under argon to avoid exposure of the conjugates to oxygen because the conjugates were believed to be sensitive to oxygen. Instructions were provided to store at 4° C. and to open the vials only when ready for immediate experimental use. Instructions also were provided to use the ethanol solutions containing the conjugates directly or to dissolve the analogs further in DMSO (dimethylsulfoxide) at appropriate concentrations, with vortexing if necessary for adequate dispersal.
# as §2, §3, §4, §5, §6, §7, §8, §9
# [7] = test system: MDA-N and MDA-MB-435 breast cancer cell lines; assay type: cell-based; settings: all concentrations tested
# Method: as §1, §2, §3, §4, §5, §6, §7, §8, §9
# [8] = test system: CNSU251; assay type: cell-based
# Method: as §1, §2, §3, §4, §5, §6, §7, §8, §9
structure (smiles),measurement,setting,value
"CC(=O)O[C@H]1C(=O)[C@@]2(C)[C@H]([C@H](OC(=O)c3ccccc3)[C@]3(O)C[C@H](OC(=O)[C@H](O)[C@@H](NC(=O)c4ccccc4)c4ccccc4)C(C)=C1C3(C)C)[C@]1(OC(C)=O)CO[C@@H]1C[C@@H]2O [Taxol, paclitaxel, reference compound]",effectiveness against leukemia cell lines,[1],somewhat effective
same,"difference in effectiveness, H522 versus H460, at TGI",[2],about 3 logs
same,entry into the brain,[3],does not get into the brain
same,GI50,"[4]; concentration at which PG is +50, 48 hours exposure, CNSSF 268",less than −10.0 log10 (molar or μg/ml)
same,TGI,[5]; 48 hours exposure,−6.95 log10 (molar or μg/ml)
same,GI50,"[5]; concentration at which PG is +50, 48 hours exposure, CNS SF 539",−7.52 log10 (molar or μg/ml)
same,average GI50 across all cell lines tested,"[6]; average over cell lines, −10 used where Taxol was active at −10.0",at least −9.19 log10 (molar or μg/ml)
CC/C=C\C/C=C\C/C=C\C/C=C\C/C=C\C/C=C\CCC(=O)O[C@H]1C[C@H]2OC[C@@]2(OC(C)=O)[C@H]2[C@H](OC(=O)c3ccccc3)[C@]3(O)CC(OC(=O)C(O)[C@@H](NC(=O)c4ccccc4)c4ccccc4)C(C)=C([C@@H](OC(C)=O)C(=O)[C@]12C)C3(C)C (stereo partly shown) [conjugate 2],relative activity toward MDA-N versus MDA-MB-435,[7],more effective against MDA-N than MDA-MB-435
same,effectiveness at TGI against CNSU251 relative to other CNS cell lines,[8],very effective
same,effectiveness against leukemia cell lines,[1],not very effective
same,relative effectiveness against H460 versus H522 at TGI,[2],slightly more effective against H460 than H522
same,GI50,[4]; 48 h,5.25 µM
same,GI50,"[5]; CNSSF-539, 48 h",2.75 µM
same,TGI,[5]; 48 hours exposure,−5.53 log10 (molar or μg/ml)
same,potency relative to Taxol,[6],one thousand to ten thousand times less potent than Taxol
same,pattern of activity versus Taxol (NCI statistical analysis),[6],statistically different
CC/C=C\C/C=C\C/C=C\C/C=C\C/C=C\C/C=C\CCC(=O)OC(C(=O)OC1C[C@@]2(O)[C@@H](OC(=O)c3ccccc3)[C@@H]3[C@]4(OC(C)=O)CO[C@@H]4C[C@H](O)[C@@]3(C)C(=O)[C@H](OC(C)=O)C(=C1C)C2(C)C)[C@@H](NC(=O)c1ccccc1)c1ccccc1 (stereo partly shown) [conjugate 1],relative activity toward MDA-N versus MDA-MB-435,[7],more effective against MDA-N than MDA-MB-435
same,effectiveness at TGI against CNSU251 relative to other CNS cell lines,[8],most effective
same,effectiveness against leukemia cell lines,[1],not very effective
same,relative effectiveness against H460 versus H522 at TGI,[2],slightly more effective against H460 than H522
same,GI50,"[4]; concentration at which PG is +50, 48 hours exposure, CNSSF 268, read-out: GI50 (converted)",4.37 µM
same,GI50,"[5]; CNSSF-539, concentration at which PG is +50, 48 hours exposure, CNS SF 539, read-out: GI50 (converted)",0.603 µM
same,TGI,[5]; 48 hours exposure,−5.13 log10 (molar or μg/ml)
same,potency relative to Taxol,[6],one thousand to ten thousand times less potent than Taxol
same,pattern of activity versus Taxol (NCI statistical analysis),[6],statistically different
